Values of other authors as cited in publication PMC12238723, “Phase I Clinical Trial of CVL218, a Novel PARP1/2 Inhibitor, in Patients with Advanced Solid Tumors” (MedComm, 2025).

Experiments:
patients = conditions: cited from earlier work
[1] = design: method as in PMID 37806255; conditions: recommended dose of 300 mg BID; cited from earlier work

Row | Compound | grade ≥3 anemia incidence (patients) | increased risk of MDS/AML compared with placebo (patients) [%] | incidence of MDS/AML (patients) | incidence of anemia (patients) [%] | occurrence of grade ≥3 anemia (patients) | overall incidence of grade ≥3 AEs (patients) | rate of dose reduction due to AEs (patients) | treatment discontinuation rates (patients) | grade ≥3 gastrointestinal AEs (patients; comparison value, no reference given) [%] | median Tmax [1] [h]
1 | NC(=O)c1cccc2cn(-c3ccc([C@@H]4CCCNC4)cc3)nc12 [niraparib] | 14.7–22.5% | 48 |  |  |  |  |  |  |  | 
2 | O=C(c1cc(Cc2n[nH]c(=O)c3ccccc23)ccc1F)N1CCN(C(=O)C2CC2)CC1 [olaparib, Olaparib] |  | 158 | approximately 1% | 21 to 46 | 5.1–22% | 36–40% | 25–29% | 6–17% | 4.3 | 1.5
